Reference: US9918915B2, “Personal care compositions providing enhanced cooling sensation” (THE PROCTER & GAMBLE COMPANY, priority 2007, dated 2018)
Where “and” joins values, the source holds several entries; their conditions need not be identical. Equal values may be shown once.

Tests used:
[1] = concentration where the cooling effect could be clearly recognized; cited from earlier work
panelists = assay: Sensory evaluation of cooling sensation after brushing with coolant dentifrice followed by aqueous rinse with or without calcium; type: in vivo, human; parameters: key to Cooling Sensation Score: 0 = no cooling, 60 = intense cooling; 7.5 = definite cooling; settings: for Cooling Sensation Score: 0-60 scale
Protocol: Sensory evaluation studies of coolant activity were conducted using a methodology patterned after the techniques described in M. C. Meilgaard, et al., Sensory Evaluation Techniques, 4th Ed. (2007). In one study, a panel of 11 trained sensory experts evaluated cooling sensation experienced after brushing with a dentifrice containing coolant(s) followed by rinsing with an aqueous rinse containing a calcium ion source. Panelists brushed teeth with 1.5 grams of a test dentifrice (containing coolant) or control (no coolant) and then expectorated. After brush expectoration, panelists evaluated cooling intensity, assigning a number between 0 (no cooling) to 60 (intense cooling). Panelists then rinsed mouth with 15 ml. of an aqueous rinse (with or without calcium) and expectorated. After rinse expectoration, panelists evaluated cooling intensity according to the same 0 to 60 scale. Evaluations were conducted at 5, 15, 30, 45, 60 minute, etc. time points. At each evaluation, panelists were instructed to breathe in through pursed lips and evaluate overall cooling sensation. In this test, a numerical score of 7.5 indicates meaningful or definite cooling.

human TRPM8 = human TRPM8 (Homo sapiens, UniProt Q7Z2W7); assay: FLIPR intracellular calcium flux (Fluo-4) in HEK cells stably transfected with human TRPM8; settings: HEK cells with human TRPM8
human TRPM8, sequence (Q7Z2W7 whole entry): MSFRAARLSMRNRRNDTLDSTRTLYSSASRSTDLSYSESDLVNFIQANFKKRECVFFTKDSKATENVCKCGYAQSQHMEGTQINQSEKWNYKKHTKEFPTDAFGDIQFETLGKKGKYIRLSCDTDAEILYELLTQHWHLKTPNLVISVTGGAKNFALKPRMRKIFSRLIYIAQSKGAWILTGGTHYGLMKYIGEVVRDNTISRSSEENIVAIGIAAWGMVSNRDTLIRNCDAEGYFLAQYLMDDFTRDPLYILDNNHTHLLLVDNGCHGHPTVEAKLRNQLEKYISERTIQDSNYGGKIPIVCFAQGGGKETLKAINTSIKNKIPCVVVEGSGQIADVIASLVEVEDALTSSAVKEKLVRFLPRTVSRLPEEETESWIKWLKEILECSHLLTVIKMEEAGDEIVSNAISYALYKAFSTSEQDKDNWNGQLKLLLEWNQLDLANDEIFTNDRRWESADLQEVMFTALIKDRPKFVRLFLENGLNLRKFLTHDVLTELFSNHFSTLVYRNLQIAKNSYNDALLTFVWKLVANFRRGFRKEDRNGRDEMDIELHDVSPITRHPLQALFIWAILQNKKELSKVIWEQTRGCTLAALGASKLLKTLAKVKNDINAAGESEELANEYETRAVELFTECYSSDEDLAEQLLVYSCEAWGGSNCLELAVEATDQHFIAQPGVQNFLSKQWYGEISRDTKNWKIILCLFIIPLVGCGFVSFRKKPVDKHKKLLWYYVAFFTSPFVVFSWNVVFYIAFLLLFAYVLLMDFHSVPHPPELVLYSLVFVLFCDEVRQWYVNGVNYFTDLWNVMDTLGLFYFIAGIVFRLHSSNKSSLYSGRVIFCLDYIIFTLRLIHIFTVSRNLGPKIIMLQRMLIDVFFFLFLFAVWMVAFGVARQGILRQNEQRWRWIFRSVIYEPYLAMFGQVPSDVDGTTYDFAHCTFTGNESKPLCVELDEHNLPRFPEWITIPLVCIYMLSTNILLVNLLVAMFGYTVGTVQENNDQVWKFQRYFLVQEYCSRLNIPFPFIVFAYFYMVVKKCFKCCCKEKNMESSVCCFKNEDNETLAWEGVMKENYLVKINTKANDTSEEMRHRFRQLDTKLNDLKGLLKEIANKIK

SMILES: CC1CCC(C(C)C)C(O)C1 (stereo not drawn) [Menthol, menthol]
- Cooling threshold [1]: about 800 ppb
- Cooling Sensation Score (panelists; 1500 ppm coolant in paste, rinse Ca+2 542 ppm, 0 min.): 18.0
- Cooling Sensation Score (panelists; 1500 ppm coolant in paste, rinse Ca+2 542 ppm, 5 min.): 17.5
- Cooling Sensation Score (panelists; 1500 ppm coolant in paste, rinse Ca+2 542 ppm, 15 min.): 4.4
- Cooling Sensation Score (panelists; 1500 ppm coolant in paste, rinse Ca+2 542 ppm, 30 min.): 0
- Cooling Sensation Score (panelists; 1500 ppm coolant in paste, rinse Ca+2 542 ppm, 45 min.): 0
- Cooling Sensation Score (panelists; 1500 ppm coolant in paste, rinse Ca+2 542 ppm, 60 min.): 0
- Calcium enhancing effect on cooling (panelists; 1500 ppm level of coolant in dentifrice): calcium enhancing effect was not observed

SMILES: CC1CCC(C(C)C)C(C(=O)Nc2ccc(CC#N)cc2)C1 (stereo not drawn) [Composition G-180, N-(4-cyanomethylphenyl)-ρ-menthanecarboxamide]
- Average Fluorescence (n = 3) (human TRPM8; 6.25 uM G-180 alone, Fluo-4): 14901.88 and 17511.73 and 17474.37
- Activation of the TRPM8 receptor (calcium ion flux vs. control) (human TRPM8; 6.25 uM): activated the TRPM8 receptor
- Cooling Sensation Score (panelists; 75 ppm coolant in paste, rinse Ca+2 0 ppm, 0 min.): 21.1
- Cooling Sensation Score (panelists; 75 ppm coolant in paste, rinse Ca+2 0 ppm, 5 min.): 23.7
- Cooling Sensation Score (panelists; 75 ppm coolant in paste, rinse Ca+2 0 ppm, 15 min.): 22.9
- Cooling Sensation Score (panelists; 75 ppm coolant in paste, rinse Ca+2 0 ppm, 30 min.): 15.0
- Cooling Sensation Score (panelists; 75 ppm coolant in paste, rinse Ca+2 0 ppm, 45 min.): 11.0
- Cooling Sensation Score (panelists; 75 ppm coolant in paste, rinse Ca+2 0 ppm, 60 min.): 5.8
- Cooling Sensation Score (panelists; 75 ppm coolant in paste, rinse Ca+2 271 ppm, 0 min.): 17.5
- Cooling Sensation Score (panelists; 75 ppm coolant in paste, rinse Ca+2 271 ppm, 5 min.): 18.3
- Cooling Sensation Score (panelists; 75 ppm coolant in paste, rinse Ca+2 271 ppm, 15 min.): 20.7
- Cooling Sensation Score (panelists; 75 ppm coolant in paste, rinse Ca+2 271 ppm, 30 min.): 16.8
- Cooling Sensation Score (panelists; 75 ppm coolant in paste, rinse Ca+2 271 ppm, 45 min.): 13.3
- Cooling Sensation Score (panelists; 75 ppm coolant in paste, rinse Ca+2 271 ppm, 60 min.): 8.4
- Cooling Sensation Score (panelists; 75 ppm coolant in paste, rinse Ca+2 542 ppm, 0 min.): 18.8
- Cooling Sensation Score (panelists; 75 ppm coolant in paste, rinse Ca+2 542 ppm, 5 min.): 25.0
- Cooling Sensation Score (panelists; 75 ppm coolant in paste, rinse Ca+2 542 ppm, 15 min.): 29.2
- Cooling Sensation Score (panelists; 75 ppm coolant in paste, rinse Ca+2 542 ppm, 30 min.): 24.4
- Cooling Sensation Score (panelists; 75 ppm coolant in paste, rinse Ca+2 542 ppm, 45 min.): 18.6
- Cooling Sensation Score (panelists; 75 ppm coolant in paste, rinse Ca+2 542 ppm, 60 min.): 14.1
- Cooling Sensation Score (panelists; 150 ppm coolant in paste, rinse Ca+2 0 ppm, 0 min.): 16.7
- Cooling Sensation Score (panelists; 150 ppm coolant in paste, rinse Ca+2 0 ppm, 5 min.): 16.0
- Cooling Sensation Score (panelists; 150 ppm coolant in paste, rinse Ca+2 0 ppm, 15 min.): 25.7
- Cooling Sensation Score (panelists; 150 ppm coolant in paste, rinse Ca+2 0 ppm, 30 min.): 19.5
- Cooling Sensation Score (panelists; 150 ppm coolant in paste, rinse Ca+2 0 ppm, 45 min.): 10.0
- Cooling Sensation Score (panelists; 150 ppm coolant in paste, rinse Ca+2 0 ppm, 60 min.): 1.5
- Cooling Sensation Score (panelists; 150 ppm coolant in paste, rinse Ca+2 271 ppm, 0 min.): 12.1
- Cooling Sensation Score (panelists; 150 ppm coolant in paste, rinse Ca+2 271 ppm, 5 min.): 22.5
- Cooling Sensation Score (panelists; 150 ppm coolant in paste, rinse Ca+2 271 ppm, 15 min.): 26.0
- Cooling Sensation Score (panelists; 150 ppm coolant in paste, rinse Ca+2 271 ppm, 30 min.): 17.1
- Cooling Sensation Score (panelists; 150 ppm coolant in paste, rinse Ca+2 271 ppm, 45 min.): 11.2
- Cooling Sensation Score (panelists; 150 ppm coolant in paste, rinse Ca+2 271 ppm, 60 min.): 0
- Cooling Sensation Score (panelists; 150 ppm coolant in paste, rinse Ca+2 542 ppm, 0 min.): 15.1
- Cooling Sensation Score (panelists; 150 ppm coolant in paste, rinse Ca+2 542 ppm, 5 min.): 21.9
- Cooling Sensation Score (panelists; 150 ppm coolant in paste, rinse Ca+2 542 ppm, 15 min.): 27.2
- Cooling Sensation Score (panelists; 150 ppm coolant in paste, rinse Ca+2 542 ppm, 30 min.): 24.8
- Cooling Sensation Score (panelists; 150 ppm coolant in paste, rinse Ca+2 542 ppm, 45 min.): 18.2
- Cooling Sensation Score (panelists; 150 ppm coolant in paste, rinse Ca+2 542 ppm, 60 min.): 8.0
- Potentiating effect of calcium ions on cooling intensity and duration (panelists; at the levels of coolant and calcium used): particularly evident
- Duration of cooling with calcium (panelists; dentifrice followed by calcium rinse): up to 60 minutes
- Sensation described by panelists (panelists; particularly when used at higher levels): “burning” sensation

SMILES: CC(C)[C@H]1CC[C@H](C)C[C@H]1O [l-neomenthol]
- Cooling threshold [1]: about 3,000 ppb

SMILES: CC(C)[C@@H]1CC[C@@H](C)C[C@@H]1O [d-neomenthol]
- Cooling threshold [1]: about 25,000 ppb
